# Key:
# [1] = test system: Caspase 3/7 activity in primary AML MNC samples; experiment: Caspase-Glo 3/7 assay in primary AML samples; assay type: cell-based, human
# Method: Cryopreserved mononuclear cells (MNC from BM or leukapheresis samples) were thawed in a water bath at 37° C. and cell suspension transferred to a 50 mL tube. 20 mL of IMDM media (Sigma, 13390) supplemented with 20% FBS (JRH Biosciences), 50 U/mL DNase I (Sigma), 100 IU/mL penicillin (Sigma), 100 μg/mL streptomycin (Sigma) and 2 mM L-glutamine (Sigma) was added dropwise to the cells while the tube was being vortexed slowly (or mixed by hand). The cells were centrifuged at 400 g for 5 min, supernatant was discarded and the cells were washed once with 20 mL PBS. […] The next morning, viability was determined by trypan blue exclusion and samples with viability lower than 85% underwent dead cell removal by density gradient centrifugation as follows: 15 mL of Lymphoprep (AXIS-Shield) was transferred to a 50 mL tube and the cell suspension (25 mL) carefully overlayed (so as not to disturb the interface mixing with the Lymphoprep). […] Viability and cell density were determined by trypan blue exclusion and cells were plated for respective experiments as described in the Results section.
# 10^4 cells (10 μL) of each sample/treatment were aliquoted in triplicate wells of a 96-well plate (white wall OptiPlate 96, Perkin Elmer) containing 40 μL complete media. […] Luminescence was measured with a FLOUstar OPTIMA plate reader (BMG Labtech). […]
# [2] = test system: MV4; 11 AML cell line; experiment: MTS proliferation assay, MV4;11; assay type: cell-based
# Method: The cell lines (MV4; 11 and HL-60) were plated in 96-well plates at 1×10^4 cells/well in 50 uL of complete growth media. Cells were plated in triplicate wells for each dose being tested. EX 1 (in DMSO), Oxi4503 (EndoTherm, Batch #EN09013, in water), CA4P (Selleckchem, Cat #S7204, in water) and Plinabulin (Selleckchem, Cat #S1176, in DMSO) was reconstituted immediately prior to use at 10 mM in appropriate diluent as indicated. The drug was prepared 2× concentrated in media and 50 uL added to respective wells (0.1% DMSO or water, final concentration). After 72 hours, 20 μL of CellTiter 96 AQueous One Solution reagent (Promega cat #G3581) was added to each well and the plate incubated for 2 h at 37° C. before absorbance was measured at 492 nm using a Thermo Multiskan Ascent96/384 Plate Reader.
# To compare the efficacy of EX 1 with other tubulin polymerisation inhibitors, MTS proliferation assays were performed on MV4; 11 and HL-60 AML cell lines (Table 1). […] Cells were cultured with the compounds for 72 hours before viability was measured by the addition of CellTiter 96 AQueous One Solution reagent (Promega cat #G3581) and absorbance measured at 492 nm. IC50 was calculated using the absolute IC50 method in GraphPad Prism 6.
compound,measurement,setting,value
"COc1cc(C(=O)c2c(C)oc3c(O)c(OC)ccc23)cc(OC)c1OC [EX 1, 2-Methyl-7-hydroxy-3-(3,4,5-trimethoxybenzoyl)-6-methoxybenzofuran]",caspase 3/7 activity,"[1]; AML480, 24 h",some increase in caspase activity
same,caspase 3/7 activity compared to DMSO,"[1]; all the AML samples, 48 h",increase in caspase activity
same,potency relative to any other VDAs (times more potent),"[2]; MV4-11, 72 h exposure",at least 10 times
same,"IC50 compared with Oxi4503, CA4P and Plinabulin","[2]; MV4;11, 72 h",lowest IC50

# Source: patent publication US11478445B2, “Method for treating acute myeloid leukemia” (Bionomics Limited, priority 2017, dated 2022)
